Here are results for twelve molecules from PubChem BioAssay (NCI).

Among the test systems are MOLT-4 leukemia; OVCAR-4 ovarian; SN12C renal; LXFL 529 NSCLC; DMS 273 small cell lung; DMS 114 small cell lung; HOP-92 NSCLC; SNB-78 CNS; KM20L2 colon; RXF 393 renal.
What all share (assay): growth of human tumour cells (NCI), 48 h

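Compound exposure: 48 hours, 5 concentrations, 96-well plates. TGI marks complete inhibition of growth.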

On to `O=[N+]([O-])c1ccc(-c2ccc(/C=N/n3c(-c4ccc(Cl)cc4)n[nH]c3=S)o2)cc1`, for which the TGI with MOLT-4 leukemia was more than 100 µM; in the test with OVCAR-4 ovarian it was more than 61.8 µM; in the test on SN12C renal it was more than 100 µM; in the test on LXFL 529 NSCLC, more than 71.1 µM; in the test on DMS 273 small cell lung, more than 63.3 µM; in the test with DMS 114 small cell lung it was more than 100 µM. The TGI with HOP-92 NSCLC is more than 94.3 µM; with SNB-78 CNS, more than 70.3 µM; in the test with KM20L2 colon it was more than 65.8 µM.

On to `CC(=O)Oc1c(C)n(CCCl)ccc1=O`, for which the TGI in the test with MOLT-4 leukemia, in the test with OVCAR-4 ovarian, with SN12C renal, with LXFL 529 NSCLC, in the test with DMS 273 small cell lung and with RXF 393 renal was more than 100 µM each time. Besides, the TGI in the test on DMS 114 small cell lung, in the test on SNB-78 CNS and in the test on KM20L2 colon was more than 100 µM throughout.

As to `CCCCN(CCCC)C(=O)C(=O)CC(=O)c1ccc(Br)cc1`, the TGI in the test on MOLT-4 leukemia, in the test with OVCAR-4 ovarian, with SN12C renal, with LXFL 529 NSCLC, in the test on DMS 273 small cell lung and in the test with DMS 114 small cell lung was more than 100 µM in each case. The TGI in the test on HOP-92 NSCLC, in the test on SNB-78 CNS and with KM20L2 colon was more than 100 µM each time.

On to `O=C1C2=C(c3ccccc31)C(c1ccc(Cl)cc1)N1C(=O)CCSC1=N2` (configuration not stated), for which the TGI in the test on MOLT-4 leukemia, in the test on OVCAR-4 ovarian, in the test with SN12C renal, in the test with LXFL 529 NSCLC, in the test with DMS 273 small cell lung and in the test with DMS 114 small cell lung was more than 100 µM each time. In addition, the TGI in the test on HOP-92 NSCLC and with KM20L2 colon was more than 100 µM throughout.

For `Cn1nc(-c2ccccc2NC(=O)C(F)(F)F)c(=O)n(C)c1=S`, the TGI with MOLT-4 leukemia is more than 100 µM; with OVCAR-4 ovarian it was 62.3 µM; with SN12C renal, more than 100 µM; with LXFL 529 NSCLC it was more than 100 µM; in the test with DMS 273 small cell lung it was more than 100 µM; in the test with RXF 393 renal it was more than 100 µM. Besides, the TGI with DMS 114 small cell lung amounted to 29.5 µM; with HOP-92 NSCLC it was 50.7 µM.

For `CC1=C(C(=O)Nc2ccccc2)C(c2ccc3c(c2)OCO3)C(C(=O)Nc2ccccc2)=C(C)N1`, the TGI in the test on MOLT-4 leukemia was 82 µM; in the test on OVCAR-4 ovarian, 81.4 µM; in the test on SN12C renal it was more than 100 µM; in the test on LXFL 529 NSCLC it was more than 100 µM; in the test on DMS 273 small cell lung it was 86.5 µM; with RXF 393 renal, 50.2 µM. In the test with DMS 114 small cell lung, the TGI was more than 100 µM.

Take `C=C(c1ccccc1N)[C@@]1(O)C[C@H](/C(=C\C)CO)C[C@@H]1NCc1ccccc1`: the TGI in the test on MOLT-4 leukemia is 39.7 µM; in the test with OVCAR-4 ovarian, more than 100 µM; with SN12C renal, more than 100 µM; in the test with DMS 273 small cell lung, 84.5 µM; in the test with RXF 393 renal, 49.3 µM; with DMS 114 small cell lung it was 33.9 µM. The TGI in the test with HOP-92 NSCLC amounted to 27.5 µM; with SNB-78 CNS, 79.7 µM; with KM20L2 colon, 42.6 µM.

On to `COc1c(OC(C)=O)ccc(/C=C2\N=C(C)OC2=O)c1[N+](=O)[O-]`, for which the TGI in the test on MOLT-4 leukemia, in the test with OVCAR-4 ovarian, in the test with SN12C renal, in the test with LXFL 529 NSCLC, with DMS 273 small cell lung and in the test with RXF 393 renal was more than 100 µM in each case. Further, the TGI with HOP-92 NSCLC, in the test with SNB-78 CNS and in the test on KM20L2 colon was more than 100 µM throughout.

In the case of `O=C1C2=C(c3ccccc31)C(c1cccc(Cl)c1)NC(=S)N2` (configuration not stated), the TGI in the test with MOLT-4 leukemia, in the test on OVCAR-4 ovarian, in the test on SN12C renal, in the test with LXFL 529 NSCLC, in the test with DMS 273 small cell lung and in the test with DMS 114 small cell lung was more than 100 µM throughout. For the same molecule, the TGI in the test with HOP-92 NSCLC and with KM20L2 colon was more than 100 µM throughout.

With `O/N=C1/C(=C/c2ccc(F)cc2)CCCC1C(NO)c1ccc(F)cc1` (configuration not stated), the TGI in the test with MOLT-4 leukemia is 55.3 µM; with OVCAR-4 ovarian, more than 100 µM; in the test with SN12C renal, 43.6 µM; in the test with LXFL 529 NSCLC, more than 100 µM; in the test with DMS 273 small cell lung it was more than 100 µM; in the test on RXF 393 renal, 86.6 µM. Besides, the TGI in the test with DMS 114 small cell lung was more than 100 µM; with SNB-78 CNS, more than 100 µM; in the test on KM20L2 colon, 72.2 µM.

As for `CCOC(=O)c1cccc(=O)c(C(=O)OCC)c1`, the TGI with MOLT-4 leukemia, with OVCAR-4 ovarian, in the test with LXFL 529 NSCLC, in the test on DMS 273 small cell lung, in the test on RXF 393 renal and in the test on DMS 114 small cell lung was more than 100 µM throughout. In addition, the TGI in the test with SNB-78 CNS and in the test on KM20L2 colon was more than 100 µM throughout.

Take `S=c1[nH]nc(COc2ccc(Cl)cc2)o1`: the TGI in the test with MOLT-4 leukemia, in the test with OVCAR-4 ovarian, in the test on SN12C renal, in the test with LXFL 529 NSCLC, in the test on DMS 273 small cell lung and in the test on DMS 114 small cell lung was more than 100 µM throughout. For the same molecule, the TGI with HOP-92 NSCLC, with SNB-78 CNS and in the test on KM20L2 colon was more than 100 µM in each case.
